# Measurements published in publication PMC7993727, “Discovery of a novel AR/HDAC6 dual inhibitor for prostate cancer treatment” (Aging (Albany NY), 2021).
# Tests used:
# [1] = test system: TMPRSS2; experiment: TMPRSS2 mRNA (qRT-PCR) and protein (Western blot) expression in VCaP cells; format: cell-based; conditions: 10 nM DHT, 24 hours
# Description: (§1) RNA expression level was analyzed by qRT-PCR and protein expression level was analyzed by Western blot. […] (I) Representative immunofluorescence microscopic images of VCaP cells for checking the subcellular localization of AR.
# (§2) The RNA of VCaP cells was extracted using a Simply P Total RNA Extraction kit (Bioer technology) and cDNA was synthesized using a SMARTer PCR cDNA Synthesis Kit (Clontech). PSA and β-actin primers were synthesized by Sangon Biotech according to previous literature. Real-time PCR was performed using the PowerUp SYBR™ Green kit (ThermoFisher). The PCR program was run on a LightCycler 480II (Roche) and set as follows: 2 minutes at 95° C followed by 40 cycles of 30 seconds at 95° C, 15 seconds at 60° C and 30 seconds at 72° C. Data were quantified using the 2-ΔΔCt method based on the Ct values of PSA and β-actin from two parallel experiments performed in triplicate.
# (§3) The whole-cell extracts were prepared in lysis buffer with a protease inhibitor cocktail (Bimake), while the xenograft tissue extracts were prepared in 0.5% Nonidet P 40 Substitute solution (Biosharp) with cocktail protease inhibitor (Bimake). Each sample containing 30 μg of total protein was loaded onto 10% SDS-PAGE and electrotransferred onto polyvinylidene fluoride membranes. […]
# [2] = test system: HEK293 cells; experiment: cell proliferation assay; format: cell-based; conditions: Homo sapiens, HEK293, 72 h, read-out: IC50 values proliferation HEK293
# [3] = target: T1, HDAC6 (Homo sapiens, UniProt Q9UBN7); experiment: fluorescent-based HDAC assay; format: biochemical; design: purchased BPS Bioscience
# T1 sequence (Q9UBN7 1-1215): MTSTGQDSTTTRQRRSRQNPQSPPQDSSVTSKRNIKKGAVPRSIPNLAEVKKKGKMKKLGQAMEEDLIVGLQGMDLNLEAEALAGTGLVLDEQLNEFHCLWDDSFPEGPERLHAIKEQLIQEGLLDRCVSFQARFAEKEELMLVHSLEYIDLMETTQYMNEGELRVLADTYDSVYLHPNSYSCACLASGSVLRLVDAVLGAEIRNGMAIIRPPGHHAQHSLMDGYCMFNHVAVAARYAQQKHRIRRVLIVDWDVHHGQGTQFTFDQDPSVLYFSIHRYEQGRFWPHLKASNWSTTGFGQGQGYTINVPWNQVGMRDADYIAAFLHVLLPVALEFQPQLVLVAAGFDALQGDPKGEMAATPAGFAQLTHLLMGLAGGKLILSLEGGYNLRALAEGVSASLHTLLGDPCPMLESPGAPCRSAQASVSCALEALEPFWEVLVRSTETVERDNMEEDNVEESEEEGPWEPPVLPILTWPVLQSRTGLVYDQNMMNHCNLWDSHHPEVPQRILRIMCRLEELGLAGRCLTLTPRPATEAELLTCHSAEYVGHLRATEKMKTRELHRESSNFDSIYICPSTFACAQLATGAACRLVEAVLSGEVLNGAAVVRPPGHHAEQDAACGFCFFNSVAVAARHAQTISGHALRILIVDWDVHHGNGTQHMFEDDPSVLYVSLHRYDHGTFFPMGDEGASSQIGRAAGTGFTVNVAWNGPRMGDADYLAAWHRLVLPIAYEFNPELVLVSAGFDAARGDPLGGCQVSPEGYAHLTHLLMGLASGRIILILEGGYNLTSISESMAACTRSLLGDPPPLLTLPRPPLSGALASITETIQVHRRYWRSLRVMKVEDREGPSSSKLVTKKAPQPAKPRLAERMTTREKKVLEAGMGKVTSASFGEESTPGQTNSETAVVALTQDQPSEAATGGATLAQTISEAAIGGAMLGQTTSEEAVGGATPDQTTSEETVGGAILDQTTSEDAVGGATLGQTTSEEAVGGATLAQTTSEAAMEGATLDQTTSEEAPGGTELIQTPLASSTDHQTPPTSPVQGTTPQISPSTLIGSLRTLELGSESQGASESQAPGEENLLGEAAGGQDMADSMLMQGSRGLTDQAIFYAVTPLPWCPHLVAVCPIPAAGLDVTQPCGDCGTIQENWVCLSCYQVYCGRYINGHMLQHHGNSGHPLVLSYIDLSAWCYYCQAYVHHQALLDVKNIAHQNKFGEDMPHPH
# Description: (§4) Commercial fluorescent assay kits were used to measure the activities of HDAC (BPS Bioscience). Briefly, the tested compounds were diluted in DMSO into a 96-well plate, and then assay buffer, HDAC, and substrate were added. The plate was incubated at 37° C for 30 minutes for enzymatic reactions, and the developer was added. After 10 minutes of incubation, the generated fluorescence was measured at an excitation of 380 nm and an emission of 460 nm.
# [4] = target: T2, HDAC3 (Homo sapiens, UniProt O15379); experiment: fluorescent-based HDAC assay; format: biochemical
# T2 construct: purchased BPS Bioscience
# T2 sequence (O15379 whole entry): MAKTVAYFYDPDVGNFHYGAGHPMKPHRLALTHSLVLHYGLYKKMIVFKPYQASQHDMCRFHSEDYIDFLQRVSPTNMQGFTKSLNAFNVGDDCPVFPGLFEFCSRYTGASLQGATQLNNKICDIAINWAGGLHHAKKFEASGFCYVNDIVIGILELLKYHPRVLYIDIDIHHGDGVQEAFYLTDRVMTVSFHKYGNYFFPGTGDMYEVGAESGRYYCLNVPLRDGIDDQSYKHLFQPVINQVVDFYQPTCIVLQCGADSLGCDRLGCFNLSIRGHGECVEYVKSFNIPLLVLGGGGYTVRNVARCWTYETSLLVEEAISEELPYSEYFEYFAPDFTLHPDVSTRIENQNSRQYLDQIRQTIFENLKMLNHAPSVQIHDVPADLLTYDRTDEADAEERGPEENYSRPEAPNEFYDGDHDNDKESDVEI
# T2 sequence (Q9Y618 395-489 partner limits assumed): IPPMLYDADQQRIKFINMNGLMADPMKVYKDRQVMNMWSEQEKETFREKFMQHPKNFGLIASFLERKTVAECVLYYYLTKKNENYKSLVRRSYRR
# Description: as §4
# [5] = target: T3, HDAC4 (Homo sapiens, UniProt P56524); experiment: fluorescent-based HDAC assay; format: biochemical
# T3 construct: purchased BPS Bioscience
# T3 sequence (P56524 whole entry): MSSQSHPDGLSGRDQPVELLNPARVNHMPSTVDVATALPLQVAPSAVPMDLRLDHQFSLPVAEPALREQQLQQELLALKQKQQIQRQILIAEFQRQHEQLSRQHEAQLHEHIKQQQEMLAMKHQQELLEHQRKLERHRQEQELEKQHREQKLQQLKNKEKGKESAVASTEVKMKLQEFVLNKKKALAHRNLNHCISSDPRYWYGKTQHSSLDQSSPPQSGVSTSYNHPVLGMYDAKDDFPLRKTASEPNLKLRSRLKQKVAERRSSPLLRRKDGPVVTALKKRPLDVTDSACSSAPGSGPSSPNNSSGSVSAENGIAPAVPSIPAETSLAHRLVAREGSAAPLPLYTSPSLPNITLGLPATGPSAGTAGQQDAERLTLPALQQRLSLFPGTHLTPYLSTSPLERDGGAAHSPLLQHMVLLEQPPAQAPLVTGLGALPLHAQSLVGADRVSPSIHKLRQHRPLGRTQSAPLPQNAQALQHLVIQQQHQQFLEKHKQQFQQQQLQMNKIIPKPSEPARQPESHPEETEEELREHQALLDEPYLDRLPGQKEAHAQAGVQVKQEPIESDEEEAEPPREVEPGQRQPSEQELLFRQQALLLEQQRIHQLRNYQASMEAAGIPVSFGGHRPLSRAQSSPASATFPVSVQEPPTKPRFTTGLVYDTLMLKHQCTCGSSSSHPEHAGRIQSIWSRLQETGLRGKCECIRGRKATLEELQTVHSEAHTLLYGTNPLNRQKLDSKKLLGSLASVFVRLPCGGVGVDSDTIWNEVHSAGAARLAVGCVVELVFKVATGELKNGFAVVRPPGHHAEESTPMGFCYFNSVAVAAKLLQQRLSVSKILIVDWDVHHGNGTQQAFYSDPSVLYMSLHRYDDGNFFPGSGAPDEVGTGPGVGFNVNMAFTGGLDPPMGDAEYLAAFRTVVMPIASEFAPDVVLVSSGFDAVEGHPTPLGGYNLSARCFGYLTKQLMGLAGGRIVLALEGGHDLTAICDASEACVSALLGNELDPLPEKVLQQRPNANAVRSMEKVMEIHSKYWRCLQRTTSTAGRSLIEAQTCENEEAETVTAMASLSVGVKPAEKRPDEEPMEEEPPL
# Description: as §4
# [6] = target: T4, HDAC1 (Homo sapiens, UniProt Q13547); experiment: fluorescent-based HDAC assay; format: biochemical
# T4 construct: purchased BPS Bioscience
# T4 sequence (Q13547 whole entry): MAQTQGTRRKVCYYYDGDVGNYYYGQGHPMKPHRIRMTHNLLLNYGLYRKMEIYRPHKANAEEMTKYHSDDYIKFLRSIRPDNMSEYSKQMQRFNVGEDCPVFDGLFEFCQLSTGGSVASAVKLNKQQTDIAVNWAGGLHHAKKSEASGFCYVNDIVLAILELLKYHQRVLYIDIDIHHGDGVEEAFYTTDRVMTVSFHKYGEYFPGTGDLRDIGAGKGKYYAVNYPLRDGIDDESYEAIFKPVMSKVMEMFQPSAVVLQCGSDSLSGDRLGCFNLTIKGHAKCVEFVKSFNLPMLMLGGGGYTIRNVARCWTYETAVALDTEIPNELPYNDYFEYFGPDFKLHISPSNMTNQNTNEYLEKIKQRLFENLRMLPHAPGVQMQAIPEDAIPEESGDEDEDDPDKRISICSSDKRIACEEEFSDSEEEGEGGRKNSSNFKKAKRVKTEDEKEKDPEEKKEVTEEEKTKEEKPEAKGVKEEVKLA
# Description: as §4
# [7] = target: T5, HDAC2 (Homo sapiens, UniProt Q92769); experiment: biochemical
# T5 construct: purchased BPS Bioscience
# T5 sequence (Q92769 whole entry): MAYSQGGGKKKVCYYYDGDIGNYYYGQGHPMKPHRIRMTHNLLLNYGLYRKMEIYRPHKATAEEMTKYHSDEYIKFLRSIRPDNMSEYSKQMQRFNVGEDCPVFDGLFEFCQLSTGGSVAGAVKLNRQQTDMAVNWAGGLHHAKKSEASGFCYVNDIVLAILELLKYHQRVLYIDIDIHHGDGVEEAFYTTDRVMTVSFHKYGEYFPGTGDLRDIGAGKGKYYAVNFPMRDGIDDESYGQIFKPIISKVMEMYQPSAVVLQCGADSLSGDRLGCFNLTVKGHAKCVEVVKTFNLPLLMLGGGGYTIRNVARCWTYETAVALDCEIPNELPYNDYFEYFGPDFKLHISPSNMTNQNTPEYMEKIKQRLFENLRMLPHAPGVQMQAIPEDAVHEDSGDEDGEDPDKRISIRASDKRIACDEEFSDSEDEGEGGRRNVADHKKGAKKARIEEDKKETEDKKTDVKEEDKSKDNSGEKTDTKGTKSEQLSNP
# Description: as §4
# [8] = test system: PSA; experiment: PSA mRNA (qRT-PCR) and protein (Western blot) expression in VCaP cells; format: cell-based; conditions: 10 nM DHT, 24 hours
# Description: as §1, §2, §3
smiles,measurement,setting,value
N#Cc1ccc(N2C(=O)C3(CCC3)N(c3ccc(C(=O)NO)c(F)c3)C2=S)cc1C(F)(F)F [Zeta55],DHT-induced endogenous mRNA and protein expression of TMPRSS2,[1],significantly suppressed
same,IC50,[2],> 50 µM
same,IC50,[3],0.98 µM
same,selectivity for HDAC6 over other HDACs tested,"[3]; over HDAC1, 2, 3, 4",> 20 folds
same,IC50,[4],> 20 µM
same,IC50,[5],> 20 µM
same,IC50,[6],> 20 µM
same,IC50,[7],> 20 µM
same,DHT-induced endogenous mRNA and protein expression of PSA,[8],significantly suppressed
